In a compilation of properties of binary mixtures (doi:10.1016/j.jct.2020.106383):

Assay: xn = mol fraction of the nth substance listed
Settings: 100 kPa

CCOC(C)=O + CCCC[n+]1ccn(C)c1.O=S(=O)([N-]S(=O)(=O)C(F)(F)F)C(F)(F)F
speed of sound [m/s]
Settings	x2 = 0	x2 = 0.1045	x2 = 0.2067	x2 = 0.3058	x2 = 0.4012	x2 = 0.5002	x2 = 0.6065	x2 = 0.7081	x2 = 0.7932	x2 = 0.9087
298.15 K	1143.2	–	1172	1182.9	1192	–	1207.6	1213.7	1218.2	–
303.15 K	1120.8	1137.6	1151.9	1164	1174.2	1183.4	1192	1199.3	–	1211.6
308.15 K	1098.7	1116.7	1132.1	1145.3	–	1166.9	1176.7	1185.1	1191.5	1199.6
313.15 K	1076.4	1095.5	1112.1	1126.5	1138.8	1150.3	1161.3	–	–	1187.7
318.15 K	–	1074.5	–	1107.8	1121.2	–	1146.1	–	1165.2	–
323.15 K	1032	1053.5	1072.5	–	1103.7	1117.4	1130.9	1142.8	–	1164.3

CCCC[n+]1ccn(C)c1.O=S(=O)([N-]S(=O)(=O)C(F)(F)F)C(F)(F)F + CCOC(C)=O
x1 = 1
Settings	speed of sound [m/s]
298.15 K	1227.9
303.15 K	1216.8
308.15 K	1205.8
313.15 K	1195
318.15 K	1184.2
323.15 K	1173.6
